{"source": "patent US20250230165A1", "about": "“HETEROCYCLIC COMPOUNDS FOR USE IN THE TREATMENT OF CANCER” (ARTIOS PHARMA LIMITED, priority 2021, published 2025)", "target": "T1, Human Polθ polymerase domain (aa1820-2590) (Homo sapiens, UniProt O75417)", "T1 construct": "Human Polθ polymerase domain (aa1820-2590) was expressed in E. coli; made in house; host or cells: E. coli", "T1 sequence (O75417 1820-2590)": "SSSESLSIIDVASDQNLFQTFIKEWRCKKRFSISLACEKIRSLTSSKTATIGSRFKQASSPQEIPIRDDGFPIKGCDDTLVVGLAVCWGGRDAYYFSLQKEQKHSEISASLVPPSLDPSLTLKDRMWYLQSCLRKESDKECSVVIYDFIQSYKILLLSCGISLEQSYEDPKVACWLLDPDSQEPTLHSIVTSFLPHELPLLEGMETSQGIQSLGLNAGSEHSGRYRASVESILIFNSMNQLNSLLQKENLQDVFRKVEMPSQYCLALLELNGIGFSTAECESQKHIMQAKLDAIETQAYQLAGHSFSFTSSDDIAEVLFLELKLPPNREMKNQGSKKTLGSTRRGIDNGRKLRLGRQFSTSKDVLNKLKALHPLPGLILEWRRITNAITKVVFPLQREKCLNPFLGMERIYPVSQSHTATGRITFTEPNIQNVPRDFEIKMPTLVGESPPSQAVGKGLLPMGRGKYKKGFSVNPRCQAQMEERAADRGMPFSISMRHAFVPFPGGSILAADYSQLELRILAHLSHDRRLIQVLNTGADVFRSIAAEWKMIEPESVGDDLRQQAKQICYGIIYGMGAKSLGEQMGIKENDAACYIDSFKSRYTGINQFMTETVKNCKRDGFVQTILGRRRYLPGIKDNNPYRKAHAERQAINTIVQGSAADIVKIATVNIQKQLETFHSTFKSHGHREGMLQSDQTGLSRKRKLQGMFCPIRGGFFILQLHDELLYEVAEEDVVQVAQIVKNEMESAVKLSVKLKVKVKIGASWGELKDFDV", "experiment": "Polθ Polymerase Domain Kinact/KI Assay (PicoGreen)", "format": "biochemical", "details": "0.8 nM Polθ, 100 nM DNA substrate, kobs vs [I] fit for 2-step covalent inhibitor", "method_in_brief": "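Kinact and KI derive from fitting kobs versus [I], where kobs were fitted from EDTA-stopped PicoGreen time courses (up to 60 min) in Tris pH 7.5 buffer with 1% DMSO, 0.8 nM enzyme, 100 nM DNA and […].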", "data": [{"molecule": "C=CC(=O)N1CC2(CN(CCN3C[C@H]4CC(=O)N(c5cc(C(F)(F)F)cc(C)n5)[C@@H]4C(=O)N(C)c4cccc(F)c43)CCN2CC)C1", "note": "[Example 35, (3aR,11aS)-5-(2-(2-acryloyl-5-ethyl-2,5,8-triazaspiro[3.5]nonan-8-yl)ethyl)-6-fluoro-10-methyl-1-(6-methyl-4-(trifluoromethyl)pyridin-2-yl)-1,3a,4,5,10,11a-hexahydro-2H-benzo[b]pyrrolo[2,3-f][1,4]diazocine-2,11(3H)-dione]", "values": [{"measurement": "Kinact/Kl", "value": 870000, "unit": "M⁻¹ s⁻¹"}]}, {"molecule": "Cc1cc(C(F)(F)F)cc(N2C(=O)C[C@@H]3CN(Cc4cn5c(n4)CN(C(=O)/C=C/C(F)F)CC5)c4c(Cl)cccc4N(C)C(=O)[C@H]32)n1", "note": "[Example 306, (3aR,11aS)-6-chloro-5-((7-((E)-4,4-difluorobut-2-enoyl)-5,6,7,8-tetrahydroimidazo[1,2-a]pyrazin-2-yl)methyl)-10-methyl-1-(6-methyl-4-(trifluoromethyl)pyridin-2-yl)-1,3a,4,5,10,11a-hexahydro-2H-benzo[b]pyrrolo[2,3-f][1,4]diazocine-2,11(3H)-dione]", "values": [{"measurement": "Kinact/Kl", "value": "1.54e+06", "unit": "M⁻¹ s⁻¹"}]}, {"molecule": "Cc1cc(C(F)(F)F)cc(N2C(=O)C[C@@H]3CN(Cc4ccc(NC(=O)/C=C/CN(C)C)c(F)c4)c4c(Cl)cccc4N(C)C(=O)[C@H]32)n1", "note": "[Example 245, (E)-N-(4-(((3aR,11aS)-6-chloro-10-methyl-1-(6-methyl-4-(trifluoromethyl)pyridin-2-yl)-2,11-dioxo-1,2,3,3a,4,10,11,11a-octahydro-5H-benzo[b]pyrrolo[2,3-f][1,4]diazocin-5-yl)methyl)-2-fluorophenyl)-4-(dimethylamino)but-2-enamide]", "values": [{"measurement": "Kinact/Kl", "value": "1.9e+06", "unit": "M⁻¹ s⁻¹"}]}, {"molecule": "C=C(CN(C)C)C(=O)N1CC[C@H](COCCN2C[C@H]3CC(=O)N(c4cc(C(F)(F)F)cc(C)n4)[C@@H]3C(=O)N(C)c3cccc(C)c32)C1", "note": "[Example 181, (3aR,11aS)-5-(2-(((S)-1-(2-((dimeth-ylamino)methyl)-acryloyl)pyrrolidin-3-yl)methoxy)eth-yl)-6,10-dimethyl-1-(6-methyl-4-(trifluoromethyl)-pyridin-2-yl)-1,3a,4,5,10,11a-hexahydro-2H-benzo[b]pyrrolo [2,3-f][1,4]diazo-cine-2,11(3H)-dione]", "values": [{"measurement": "Kinact/Kl", "value": "2.26e+06", "unit": "M⁻¹ s⁻¹"}]}, {"molecule": "Cc1cc(C(F)(F)F)cc(N2C(=O)C[C@@H]3CN(Cc4cccc(NC(=O)/C=C/CN(C)C)c4)c4c(Cl)cccc4N(C)C(=O)[C@H]32)n1", "note": "[Example 247, (E)-N-(3-(((3aR,11aS)-6-chloro-10-methyl-1-(6-methyl-4-(trifluoromethyl)pyridin-2-yl)-2,11-dioxo-1,2,3,3a,4,10,11,11a-octahydro-5H-benzo[b]pyrrolo[2,3-f][1,4]diazocin-5-yl)methyl)phenyl)-4-(dimethylamino)but-2-enamide]", "values": [{"measurement": "Kinact/Kl", "value": 980000, "unit": "M⁻¹ s⁻¹"}]}, {"molecule": "CC#CC(=O)N1CCn2cc(CN3C[C@H]4CC(=O)N(c5cc(C(F)(F)F)cc(C)n5)[C@@H]4C(=O)N(C)c4cccc(C)c43)nc2C1", "note": "[Example 201, (3aR,11aS)-5-((7-(but-2-ynoyl)-5,6,7,8-tetrahydro-imidazo[1,2-a]pyr-azin-2-yl)methyl)-6,10-dimethyl-1-(6-methyl-4-(tri-fluoromethyl)pyr-idin-2-yl)-1,3a,4,5,10,11a-hexa-hydro-2H-benzo [b]pyrrolo[2,3-f] [1,4]diazocine-2,11(3H)-dione]", "values": [{"measurement": "Kinact/Kl", "value": "2.8e+06", "unit": "M⁻¹ s⁻¹"}]}, {"molecule": "C=CC(=O)N1C[C@@H](F)[C@@H](n2cnc(CN3C[C@H]4CC(=O)N(c5cc(C(F)(F)F)cc(C)n5)[C@@H]4C(=O)N(C)c4cccc(C)c43)c2)C1", "note": "(single isomer, unassigned) [Example 326a]", "values": [{"measurement": "Kinact/Kl", "value": 450000, "unit": "M⁻¹ s⁻¹"}]}, {"molecule": "C=CC(=O)N1Cc2cc(CN3C[C@H]4CC(=O)N(c5cc(C(F)(F)F)cc(C)n5)[C@@H]4C(=O)N(C)c4cccc(C)c43)cnc2C1CO", "note": "(single isomer, unassigned) [Example 232]", "values": [{"measurement": "Kinact/Kl", "value": "1.89e+06", "unit": "M⁻¹ s⁻¹"}]}, {"molecule": "C=CC(=O)N1CC[C@H]1c1nnc(CN2C[C@H]3CC(=O)N(c4cc(C(F)(F)F)cc(C)n4)[C@@H]3C(=O)N(C)c3cccc(C)c32)o1", "note": "[Example 275, (3aR,11aS)-5-((5-((S)-1-acryloylazetidin-2-yl)-1,3,4-oxadiazol-2-yl)methyl)-6,10-dimethyl-1-(6-methyl-4-(trifluoromethyl)pyridin-2-yl)-1,3a,4,5,10,11a-hexahydro-2H-benzo[b]pyrrolo[2,3-f][1,4]diazocine-2,11(3H)-dione]", "values": [{"measurement": "Kinact/Kl", "value": 800000, "unit": "M⁻¹ s⁻¹"}]}, {"molecule": "C=CC(=O)N1Cc2cc(CN3C[C@H]4CC(=O)N(c5cc(C(F)(F)F)cc(C)n5)[C@@H]4C(=O)N(C)c4cccc(Cl)c43)cnc2[C@@H]1CC#N", "note": "(racemic) [Example 292a, 2-((S/R)-6-acryloyl-3-(((3aR,11aS)-6-chloro-10-methyl-1-(6-methyl-4-(trifluoromethyl)pyridin-2-yl)-2,11-dioxo-1,2,3,3a,4,10,11,11a-octahydro-5H-benzo[b]pyrrolo[2,3-f][1,4]diazocin-5-yl)methyl)-6,7-dihydro-5H-pyrrolo[3,4-b]pyridin-7-yl)acetonitrile]", "values": [{"measurement": "Kinact/Kl", "value": "2.97e+06", "unit": "M⁻¹ s⁻¹"}]}, {"molecule": "C=CC(=O)N1CC(N2CC[C@H](CN3C[C@H]4CC(=O)N(c5cc(C(F)(F)F)cc(C)n5)[C@@H]4C(=O)N(C)c4cccc(Cl)c43)[C@H](C#N)C2)C1", "note": "(single isomer, unassigned) [Example 227a]", "values": [{"measurement": "Kinact/Kl", "value": 230000, "unit": "M⁻¹ s⁻¹"}]}, {"molecule": "C/C=C(\\CN(C)C)C(=O)N1CC(OCCCN2C[C@H]3CC(=O)N(c4cc(C(F)(F)F)cc(C)n4)[C@@H]3C(=O)N(C)c3cccc(C)c32)C1", "note": "[Example 194, (3aR,11aS)-5-(3-((1-((E)-2-((dimeth-ylamino)methyl)-but-2-enoyl)azeti-din-3-yl)oxy)prop-yl)-6,10-dimethyl-1-(6-methyl-4-(trifluoromethyl)-pyridin-2-yl)-1,3a,4,5,10,11a-hexahydro-2H-benzo[b]pyrrolo [2,3-f][1,4]diazo-cine-2,11(3H)-dione]", "values": [{"measurement": "Kinact/Kl", "value": "4.38e+06", "unit": "M⁻¹ s⁻¹"}]}, {"molecule": "C=CC(=O)N1CC(n2cnc(CN3C[C@H]4CC(=O)N(c5cc(C(F)(F)F)cc(C)n5)[C@@H]4C(=O)N(C)c4cc(F)ccc43)c2)C1", "note": "[Example 40, (3aR,11aS)-5-((1-(1-acryloylazetidin-3-yl)-1H-imidazol-4-yl)methyl)-8-fluoro-10-methyl-1-(6-methyl-4-(trifluoromethyl)pyridin-2-yl)-1,3a,4,5,10,11a-hexahydro-2H-benzo[b]pyrrolo[2,3-f][1,4]diaocine-2,11(3H)-dione]", "values": [{"measurement": "Kinact/Kl", "value": 850000, "unit": "M⁻¹ s⁻¹"}]}, {"molecule": "C=CC(=O)N1CCN2C[C@@H](CN3C[C@H]4CC(=O)N(c5cc(C(F)(F)F)cc(C)n5)[C@@H]4C(=O)N(C)c4cccc(F)c43)N(C)C[C@H]2C1", "note": "(single isomer, unassigned) [Example 140a]", "values": [{"measurement": "Kinact/Kl", "value": 22000, "unit": "M⁻¹ s⁻¹"}]}, {"molecule": "C=CC(=O)N1C[C@H]2C[C@@H]1CN2CCN1C[C@H]2CC(=O)N(c3cc(C(F)(F)F)cc(C)n3)[C@@H]2C(=O)N(C)c2cccc(C)c21", "note": "[Example 263, (3aR,11aS)-5-(2-((1R,4R)-5-acryloyl-2,5-diazabicyclo[2.2.1]heptan-2-yl)ethyl)-6,10-dimethyl-1-(6-methyl-4-(trifluoromethyl)pyridin-2-yl)-1,3a,4,5,10,11a-hexahydro-2H-benzo[b]pyrrolo[2,3-f][1,4]diazocine-2,11(3H)-dione]", "values": [{"measurement": "Kinact/Kl", "value": "1.06e+06", "unit": "M⁻¹ s⁻¹"}]}]}
